Tests used:
Format in all cases: cell-based
human GLP1R (hGLP1R) [1] = target: T1, human GLP1R (hGLP1R) (Homo sapiens, UniProt P43220); assay: Human GLP1R cAMP agonist assay (GloSensor); details: HEK293-SNAP-hGLP1R-GloSensor cells
In short: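 HEK293 cells stably expressing SNAP-tagged hGLP1R and the GloSensor-22F cAMP luciferase biosensor, pre-loaded 2 h with substrate, then exposed 12 min at rt to compound (30–0.06 μM, 0.5 mM IBMX, 0.1% BSA). Luminescence normalized to 2 nM GLP1(7-36); EC50 and Emax from 4-parameter logistic fit.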

human GLP1R (hGLP1R) [2] = target: T1, human GLP1R (hGLP1R); assay: Human GLP1R β-arrestin recruitment assay (PathHunter); set-up: insert synthesized by GeneArt 93-0164 (cells); 93-0491 (vector bundle); details: CHO-hGLP1R-β-arrestin cells; for EC50: mean n=2, read-out: Beta-Arrestin assay EC50 Mean; for Emax: relative to GLP1(7-36), read-out: Beta-Arrestin assay Emax
Description: (§1) Compounds 1 to 31 were tested in the following cellular assays that measure the intracellular cAMP concentration, beta-arrestin recruitment and receptor internalization. The cAMP is generated by the activation of GLP1R. The cAMP data obtained is shown in Table 1 (where S.E.M. is included, mean n=3 independent experiments+/−S.E.M). Beta-arrestin is recruited upon activation of GLP1R and the data obtained are shown in Table 2 (mean n=2 independent experiments, +/−S.D). The extent to which the GLP1R is internalized into the cell and away from the plasma membrane following activation is also shown in Table 2 (mean n=2 independent experiments, +/−S.D). EC50 for each assay is defined as the concentration of the compound that leads to half of the maximum response (after baseline correction). Emax is defined as the maximum response observed for the test compound, normalized to the maximum response observed for the endogenous ligand (GLP1(7-36)) to GLP1R.
The extent to which agonists recruited β-arrestin was measured using the PathHunter® β-arrestin assay (DiscoverX). This assay measures binding of β-arrestin to the receptor using an enzyme complementation approach. […] When β-arrestin is recruited to the receptor the enzyme becomes active and generates luminescence in the presence of a chemiluminescent substrate (PathHunter® Detection Kit, DiscoverX cat #93-0001). Luminescence can be measured on a relevant detector. CHO-hGLP1R-β-arrestin cells stably overexpressing hGLP1R with Prolink tag and β-arrestin with EA tag were seeded at 20 μL per well in white 384-well poly-D-Lysine coated plates (Greiner Bio One, cat #781945) in Plating Reagent 2 (DiscoverX, cat #93-0563R2A), and incubated overnight at 37° C., 5% CO2 with humidity. The following day, agonists were prepared at 5 times the final required concentration. To generate triplicate dose response curves, compounds were serially diluted 3-fold in assay buffer (HBSS, 10 mM Hepes and 0.1% BSA), then added to the cell assay plate to a final volume of 25 μL and final top concentrations starting at 30 μM. In the same plate and assay buffer as the tested compounds, were EC100 control wells containing GLP1 (7-36) peptide (Bachem, cat #H-6795) at a final concentration of 1 μM and also EC0 control wells containing no compound. The plate was incubated at 37° C., 5% CO2 with humidity for 2 h after adding the compounds to the cells. Then the detection reagent was prepared (19 parts cell assay buffer, 5 parts substrate reagent 1 and 1 part substrate reagent 2 as per manufacturers recommendations, DiscoverX cat #93-0001), and 12 μL were added per well to the cell assay plate. The plate was incubated for an additional hour in the dark at RT. Luminescence was then measured with an Envision 2104 Multilabel reader with “TRF Light Unit, 337 nm” (Perkin Elmer) using the Ultra-Sensitive protocol setting “384-well US luminescence detector” with the 384-well luminescence aperture, 0.1 sec per well. β-arrestin recruitment was calculated and expressed as percent of the GLP1 (7-36) EC100 control wells: [(sample signal−mean EC0 signal)/(mean EC100 of GLP1 (7-36) signal−mean EC0 signal)]*100 using Microsoft Excel. Curve fitting for EC50 determinations was performed using GraphPad Prism. The 4-parameter logistic model, Hill slope was used: Y=Bottom+(Top−Bottom)/(1+10^((Log EC50−X)*Hill Slope)), where Y is the functional response; X is the compound concentration; bottom is A0 or the minimum value (at 0 dose); top is Ainf or the maximum value (at infinite dose); EC50 is the point of inflection (i.e. the point on the sigmoid shaped curve halfway between A0 and Ainf). The EC50 value was calculated in μM. Emax is the maximal activity detected within the concentration range, derived from the fitted curve relative to GLP1(7-36). […]

human GLP1R = human GLP1R (Homo sapiens, UniProt P43220); assay: Human GLP1R DERET internalization assay; details: HEK293-SNAP-hGLP1R-GloSensor cells
Description: as §1
The extent to which agonists internalize the human GLP1R was determined based on an optimized version of a RealTime FRET-based ‘DERET’ (Dissociation Enhanced Resonance Energy Transfer) assay. The technology relies on labeling of the SNAP-tagged GPCR with a SNAP-Lumi-Terbium (donor fluorophore, Cisbio, cat #SSNPTBD). The compounds are incubated with the cells over-expressing the GPCR of interest in the presence of an excess of fluorescein (acceptor fluorophore). When the GPCR is on the cell surface, the donor signal is quenched by the acceptor and the donor/acceptor ratio is low. As the GPCR internalizes, the donor signal is no longer quenched, and the acceptor is no longer excited so the donor/acceptor ratio increases.
HEK293-SNAP-hGLP1R-GloSensor cells (stably overexpressing SNAP-tagged hGLP1R) were seeded overnight in white 384-well poly-D-Lysine coated plates (Greiner Bio One, cat #781945) in regular DMEM growth medium (Gibco, cat #11965-092, 10% heat-inactivated FBS, 10 mM HEPES, 1× penicillin/streptomycin, 0.5 mg/mL geneticin (Gibco, cat #10131-035) and 0.25 mg/mL hygromycin B (Invitrogen, cat #10687010). On the assay day, cell medium was removed and 100 nM SNAP-Lumi-Tb reagent was added in Opti-MEM solution. The cells were incubated at 37° C. for 1 h. Cells were washed using a plate washer in assay buffer [1×HBSS (10× Gibco, cat #14065-056), 20 mM Hepes (Gibco, cat #15630-080), 1 mM CaCl2 (Fluka, cat #21114-1L), 1 mM MgCl2 (Ambion, cat #AM9530G) pH7.4], and 20 μL buffer with 0.1% BSA was added to each well. After leaving cells to equilibrate for ˜15 min at 37° C., 10 μL of Fluorescein (sodium salt, Sigma, cat #F6377, diluted in buffer) was added at 25 μM final concentration. To generate triplicate dose response curves, compounds were serially diluted 3-fold in assay buffer, then added to the cell assay plate to a final volume of 40 μL and final top concentrations starting at 30 μM. In the same plate and assay buffer as the tested compounds, a GLP1 (7-36) peptide (Bachem, cat #H-6795) control curve was included at a final top concentration of 1 μM in order to establish EC100. EC0 wells with buffer only were also included. The plate FRET fluorescence was measured immediately using a Perkin Elmer Envision with LANCE/DELFIA D400 single mirror, excitation filter X320, and emission filters M615_203 (donor emission) and M515 (acceptor emission), and then measured every 30 min. […] Plates were kept at 37° C. between reads. Data was expressed as the ratio of donor/acceptor emissions using Microsoft Excel and plotted in GraphPad Prism. In order to determine EC50 and Emax for internalization, data was calculated and expressed as percent of the GLP1 (7-36) EC100 control wells: [(sample signal−mean EC0 signal)/(mean EC100 of GLP1 (7-36) signal−mean EC0 signal)]*100 using Microsoft Excel. Curve fitting for EC50 determinations was performed using GraphPad Prism. The 4-parameter logistic model, Hill slope was used:
Y=Bottom+(Top−Bottom)/(1+10^((Log EC50−X)*Hill Slope)), […]

T1 sequence (P43220 24-463): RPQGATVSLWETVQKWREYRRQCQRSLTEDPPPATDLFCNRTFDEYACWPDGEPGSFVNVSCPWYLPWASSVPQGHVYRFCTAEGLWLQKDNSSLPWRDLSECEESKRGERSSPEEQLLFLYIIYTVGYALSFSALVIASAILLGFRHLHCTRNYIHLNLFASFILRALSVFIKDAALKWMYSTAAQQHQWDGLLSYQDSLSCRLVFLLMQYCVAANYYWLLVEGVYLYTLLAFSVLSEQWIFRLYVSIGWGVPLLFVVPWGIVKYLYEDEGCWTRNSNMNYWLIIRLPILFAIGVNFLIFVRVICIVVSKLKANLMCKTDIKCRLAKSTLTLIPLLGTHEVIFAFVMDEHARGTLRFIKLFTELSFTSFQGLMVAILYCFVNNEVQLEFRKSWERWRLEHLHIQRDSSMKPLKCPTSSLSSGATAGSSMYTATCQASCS
Sequence of human GLP1R (P43220 24-463): as above

Row | SMILES | Emax (human GLP1R (hGLP1R) [1]; cAMP, normalized to GLP1(7-36) maximum response, read-out: Emax mean) | EC50 (human GLP1R (hGLP1R) [1]; intracellular cAMP, mean n=3 where SEM is given) | EC50 (human GLP1R (hGLP1R) [2]) | Emax (human GLP1R (hGLP1R) [2]) | EC50 (human GLP1R; mean n=2) | Emax (human GLP1R; relative to GLP1(7-36))
1 | Cc1nc(CN2CCC(c3cccc4c3O[C@@](C)(c3ccc(Cl)cc3F)O4)CC2)n(C[C@@H]2CCO2)c1C(=O)O [Compound C-3, 2-((4-((S)-2-(4-chloro-2-fluorophenyl)-2-methylbenzo[d][1,3]dioxol-4-yl)piperidin-1-yl)methyl)-4-methyl-1-(((S)-oxetan-2-yl)methyl)-1H-imidazole-5-carboxylic acid] | 108% | 1.65 nM | > 30000 nM | 0% |  | 
2 | C[C@]1(c2ccc(Cl)cc2F)Oc2cccc(C3CCN(Cc4nc5ccc(C(=O)O)cc5n4C[C@@H]4CCO4)CC3)c2O1 [Reference compound, 2-((4-((S)-2-(4-chloro-2-fluorophenyl)-2-methylbenzo[d][1,3]dioxol-4-yl)piperidin-1-yl)methyl)-1-(((S)-oxetan-2-yl)methyl)-1H-benzo[d]imidazole-6-carboxylic acid, reference compound] |  |  | 123 nM | 27% | 15 nM | 87%

— patent US20240182456A1, “2-((4-((S)-2-(4-CHLORO-2-FLUOROPHENYL)-2-METHYLBENZO[D][1,3]DIOXOL-4-YL)PIPERIDIN-1-YL)METHYL)-1-(((S)-OXETAN-2-YL)METHYL)-1H-IMIDAZOLE DERIVATIVES AS ACTIVATORS OF THE GLP1 RECEPTOR FOR THE TREATMENT OF OBESITY” (Novartis AG, priority 2021, published 2024)
